Measurements: the NIST ThermoML archive (doi:10.1021/je900237e)
± gives the expanded uncertainty stated by the source.

Details: 101.33 kPa, Liquid; for speed of sound: Pulse-echo method; for mass density: Pycnometric method

Structure (SMILES)	speed of sound (298.15 K)	mass density (298.15 K)	speed of sound (308.15 K)
Cc1ccccc1C [1,2-dimethylbenzene]	1344 ± 2 m/s	875.9 ± 0.46 kg/m3	
Cc1ccc(C)cc1 [1,4-dimethylbenzene]	1310 ± 2 m/s	858.63 ± 0.45 kg/m3	
Cc1ccccc1N [2-methylaniline]		994.28 ± 0.57 kg/m3	1603 ± 2.3 m/s
Cc1ccccc1 [toluene]	1305 ± 5 m/s	862.17 ± 5.4 kg/m3	
c1ccccc1 [benzene]	1298 ± 5 m/s	873.64 ± 5.5 kg/m3	
